Molecules are shown by their SMILES.

As usually defined, the half-life is how long it takes for the measured level to halve. Read a high half-life as slow loss. One may read the pKa as the negative logarithm of the acid dissociation constant. A lower pKa goes with a stronger acid or weaker base.

Data set [1] can be described thus: Rate of cyclization, as measured by rate of formation of compound at 22 degree Centigrade. In kind it is ADME.
The nature of data set [2]: Rate of cyclization, as measured by rate of formation of compound at 37 degree Centigrade. In kind it is ADME.
A short description of data set [3]: Rate of hydrolysis of compound at pH 7.3 and 22 degree Centigrade. In kind it is ADME. Conditions: buffer.
Data set [4] in a line: Rate of hydrolysis of compound at pH 7.3 and 37 degree Centigrade. In kind it is ADME. Conditions: buffer.
The nature of data set [5]: Equipotent potent ratio relative to carbachol (nicotinic activity). In kind it is ADME.
The nature of data set [6]: Apparent first-order rate constant for bromide ion release at 37 degree Celsius and pH 7.3. In kind it is ADME.
Data set [7] can be described thus: Rate of cyclization of compound at 22 degree Celsius and pH 7.29. In kind it is ADME.
A short description of data set [8]: Rate of cyclization of compound at 22 degree Celsius and pH 7.67. In kind it is ADME.
Data set [9] can be described thus: Rate of cyclization of compound at 22 degree Centigrade and pH 6.25. In kind it is ADME.
The nature of data set [10]: Half-life of compound at 22 degree Celsius and pH 4.24 was determined. In kind it is ADME.
The nature of data set [11]: pKa value of compound was determined. In kind it is physicochemical.
Data set [12] can be described thus: First-order rate constant for cyclization of the free base. In kind it is ADME.
Data set [13] is described as follows: Rate of cyclization of compound at 22 degree Celsius and pH 4.24. In kind it is ADME.
Data set [14] is described as follows: Rate of cyclization of compound at 22 degree Celsius and pH 5.46. In kind it is ADME.
Data set [15] in a line: Half-life of compound at 22 degree Celsius and pH 7.29 was determined. In kind it is ADME.
A short description of data set [16]: Half-life of compound at 22 degree Centigrade and pH 7.67 was determined. In kind it is ADME.
Data set [17] is described as follows: Half-life of compound at 22 degree Celsius and pH 6.25 was determined. In kind it is ADME.
Data set [18] can be described thus: Half-life of compound at 22 degree Celsius and pH 5.46 was determined. In kind it is ADME.

As for `C[N+]1(CC#CCN2CCCC2=O)CC1.[Br-]`, the results for the k1 in data set [1] and in data set [2] were 0.145 min⁻¹ and 0.845 min⁻¹, respectively. In addition, the k2 in data set [3] was 0.00829 min⁻¹; in data set [4] it was 0.0395 min⁻¹.

`CN(CC#CCN1CCCC1=O)CCBr`: the Molar ratio in data set [5] turned out to be 12.3. The Rate constant in data set [6] was 0.85 min⁻¹. For the same molecule, the k1 in [7] worked out at 0.1406 min⁻¹; in data set [8] it was 0.1512 min⁻¹; in [9], 0.1146 min⁻¹; in [13], 0.00266 min⁻¹; in data set [14], 0.0678 min⁻¹. Besides, the half-life in data set [10] was determined as 261 min; in data set [15] it was 4.9 min; in data set [16] it was 4.6 min; in data set [17], 6.1 min; in data set [18], 10.2 min. This molecule had a pKa in data set [11] of 5.6. In addition, in data set [12], the k0 was determined as 0.146 min⁻¹.

Source of the values: ChEMBL document CHEMBL1123738, “Kinetics of solvolysis and muscarinic actions of an N-methyl-N-(2-bromoethyl)amino analogue of oxotremorine” (J Med Chem, 1987).
